Values joined by “and” are separate entries in the source; they are usually repeats but may differ in a detail not shown here. Equal entries are not always repeated.
How the values were obtained:
Assay type in all cases: cell-based
[1] = molecular target: T1, AaegOR10 (Aedes aegypti, UniProt Q177X3); assay: Two-electrode voltage clamp of Xenopus laevis oocytes expressing AaegOR10/Orco (blends, unitary compounds, concentration-response); conditions: for Raw response, unitary compounds of blend Indoles 1: unitary compounds of Indoles 1, individual oocytes 1-9 (replicates); for Raw Data, concentration-response: first series, oocytes 1-8
T1 sequence (Q177X3 1-375): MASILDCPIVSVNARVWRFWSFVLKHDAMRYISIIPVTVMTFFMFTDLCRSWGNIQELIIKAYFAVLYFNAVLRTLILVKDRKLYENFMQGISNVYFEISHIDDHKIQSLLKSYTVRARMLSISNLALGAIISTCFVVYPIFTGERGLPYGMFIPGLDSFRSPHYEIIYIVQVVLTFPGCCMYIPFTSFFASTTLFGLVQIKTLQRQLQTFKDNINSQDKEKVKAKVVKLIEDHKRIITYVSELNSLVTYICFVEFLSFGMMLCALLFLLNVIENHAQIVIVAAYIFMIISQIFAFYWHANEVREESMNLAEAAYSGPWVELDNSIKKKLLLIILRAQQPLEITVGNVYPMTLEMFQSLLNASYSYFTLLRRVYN
T1 sequence (Q178U6 1-478 partner): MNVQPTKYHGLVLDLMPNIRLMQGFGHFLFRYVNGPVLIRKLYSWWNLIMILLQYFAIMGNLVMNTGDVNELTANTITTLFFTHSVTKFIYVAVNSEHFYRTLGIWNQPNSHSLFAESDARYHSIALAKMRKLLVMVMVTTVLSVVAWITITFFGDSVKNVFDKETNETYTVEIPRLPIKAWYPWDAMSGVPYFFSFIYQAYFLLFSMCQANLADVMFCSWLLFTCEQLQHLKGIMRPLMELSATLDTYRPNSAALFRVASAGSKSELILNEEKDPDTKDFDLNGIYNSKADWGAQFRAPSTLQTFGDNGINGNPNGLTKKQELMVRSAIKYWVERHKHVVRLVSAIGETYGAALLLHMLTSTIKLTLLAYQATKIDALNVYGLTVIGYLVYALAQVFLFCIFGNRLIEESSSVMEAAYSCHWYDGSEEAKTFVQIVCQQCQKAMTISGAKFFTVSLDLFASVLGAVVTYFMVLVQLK
From the text: (§1) The coding regions of ten AaegOR genes of interest (S3 File) and AaegOrco were synthesized by Twist Bioscience (San Francisco, CA, USA) and cloned into the pENTR plasmid. The Gateway LR directional cloning system (Invitrogen Corp., Carlsbad, CA, USA) was utilized to subclone AaegOR coding regions into the pSP64t-RFA oocyte expression plasmid. Plasmids were purified using the GeneJet Plasmid Miniprep Kit (ThermoFisher Scientific, Waltham, MA, USA). Purified plasmids were sequenced in both directions to confirm coding regions.
(§2) Chemical compounds (S6 File) used in the deorphanization of AaegORs were purchased from Acros Organics (Morris, NJ, USA), Alfa Aesar (Ward Hill, MA, USA), and ThermoFisher Scientific (Waltham, MA, USA) at the highest purity available. Compounds were stored as 1M stocks in 100% DMSO. Serial dilutions of each compound were prepared in 10% DMSO and blended by chemical class.
(§3) pSP64t-RFA: AaegOR clones were linearized using Xbal, and cRNAs were synthesized using the mMESSAGE mMACHINE ® SP6 kit (Life Technologies, Carlsbad, CA, USA). Xenopus laevis stage V-VII oocytes purchased from Xenopus1 (Dexter, MI, USA) were stored at 18°C in Incubation medium (ND96 96 with 5% dialyzed horse serum, 50μg/mL gentamycin, 100μg/mL streptomycin, 100μg/mL penicillin, and 550μg/mL sodium pyruvate). 30nL of cRNA was injected into multiple oocytes using a microinjection syringe pump (World Precision Instruments, Sarasota, FL, USA) maintained at 18°C for 48–72 hrs. Odorant blends were perfused across individual oocytes for 10–15 seconds, held at a resting membrane potential of -80 mV using an OC-725C oocyte clamp (Warner Instruments, LLC, Hamden, CT, USA). Induced currents were measured indirectly using the two-electrode voltage clamp technique (TEVC). Following each stimulus, currents were allowed to return to baseline before further stimulation. Data was captured using the Digidata 1550 B digitizer and PClamp10 software (Molecular Devices, San Jose, CA, USA). Concentration-response curves were generated by perfusing unitary odorants over oocytes at increasing concentrations from [10^-3M] to [10^-9M]. Data were analyzed using GraphPad Prism 8 (GraphPad Software Inc., La Jolla, CA, USA). At least two biological replicates were conducted at each concentration and for each compound. Data for at least seven oocytes responding to each compound was analyzed (S7 File).

[2] = molecular target: T2, AaegOR55 (Aedes aegypti, UniProt Q16T12); assay: Two-electrode voltage clamp of Xenopus laevis oocytes expressing AaegOR55/Orco (blends, unitary compounds, concentration-response); conditions: for Raw Data (Responses in nA), Indoles 1 unitary compounds / Raw Data (Responses in nA), concentration-response: AaegOR55; for Raw Data (Responses in nA), Indoles 1 unitary compounds: compounds of blend Indoles 1, individual oocytes (Oocyte 1-7); for Raw Data (Responses in nA), concentration-response: individual oocytes (Oocyte 1-9)
T2 sequence (Q16T12 10-392): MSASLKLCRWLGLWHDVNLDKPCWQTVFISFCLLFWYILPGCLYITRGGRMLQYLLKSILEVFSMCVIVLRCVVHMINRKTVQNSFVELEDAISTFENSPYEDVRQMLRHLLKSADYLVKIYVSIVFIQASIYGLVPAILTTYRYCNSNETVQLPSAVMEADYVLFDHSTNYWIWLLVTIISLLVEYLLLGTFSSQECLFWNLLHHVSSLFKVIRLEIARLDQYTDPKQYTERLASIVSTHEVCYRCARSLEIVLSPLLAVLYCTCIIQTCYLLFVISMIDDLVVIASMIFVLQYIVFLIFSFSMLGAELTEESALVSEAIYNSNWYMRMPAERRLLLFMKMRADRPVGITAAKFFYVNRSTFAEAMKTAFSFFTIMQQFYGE
T2 sequence (Q178U6 1-478 partner): T1 sequence (Q178U6 1-478 partner)
From the text: as §1, §2, §3

[3] = molecular target: T3, AaegOR13 (Aedes aegypti, UniProt Q16Z13); assay: Two-electrode voltage clamp of Xenopus laevis oocytes expressing AaegOR13/Orco (blends, unitary compounds, concentration-response); conditions: for Raw data (Responses in nA), unitary compounds of Indoles 1, Alcohols 1, Alcohols 3: individual oocytes 1-7
T3 sequence (Q16Z13 1-389): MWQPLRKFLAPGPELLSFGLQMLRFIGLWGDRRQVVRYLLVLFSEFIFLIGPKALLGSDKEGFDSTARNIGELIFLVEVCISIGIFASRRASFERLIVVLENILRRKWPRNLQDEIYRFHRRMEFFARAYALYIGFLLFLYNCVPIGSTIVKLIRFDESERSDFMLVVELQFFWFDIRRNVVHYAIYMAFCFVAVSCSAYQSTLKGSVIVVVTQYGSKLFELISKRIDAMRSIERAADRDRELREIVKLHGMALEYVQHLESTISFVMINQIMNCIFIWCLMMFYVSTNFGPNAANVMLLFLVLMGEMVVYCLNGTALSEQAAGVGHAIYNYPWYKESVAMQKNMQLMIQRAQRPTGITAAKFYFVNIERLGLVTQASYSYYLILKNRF
T3 sequence (Q178U6 1-478 partner): T1 sequence (Q178U6 1-478 partner)
Summary of the method: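 Xenopus oocytes injected with cRNA for AaegOR plus Orco, kept 48–72 hrs at 18°C, clamped at -80 mV by TEVC. Odorant blends or single compounds (10% DMSO dilutions) perfused 10–15 s; concentration-response from 10^-3M to 10^-9M, ≥7 responding oocytes, ≥2 biological replicates.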

Compound	Raw response, unitary compounds of blend Indoles 1 [1]	Raw Data (Responses in nA), Indoles 1 unitary compounds [2]	Raw data (Responses in nA), unitary compounds of Indoles 1, Alcohols 1, Alcohols 3 [3]	other results
O=Cc1c[nH]c2ccccc12 [indole-3-carboxaldehyde]	80.0 nA and 30.0 nA and 100.0 nA and 20.0 nA (2×) and 70.0 nA and 0.0 nA (3×)	50.0 nA and 25.0 nA (2×) and 40.0 nA and 20.0 nA and 45.0 nA and 35.0 nA	–	–
CCc1ccc(O)cc1 [4-ethylphenol, 4-Ethylphenol]	0.0 nA	5.0 nA (5×) and 0.0 nA (2×)	70.0 nA and 740.0 nA and 340.0 nA and 310.0 nA and 300.0 nA and 275.0 nA and 250.0 nA	EC50 ([3]; AaegOR13/Orco expressing oocytes, TEVC, concentration-response of normalized current): ~0.17 µM and 0.17 µM
Cc1cc2ccccc2[nH]1 [2-Methylindole]	0.0 nA	0.0 nA	0.0 nA (6×) and 5.0 nA	–
c1ccc2[nH]ccc2c1 [indole]	0.0 nA (6×) and 80.0 nA and 10.0 nA (2×)	40.0 nA (2×) and 15.0 nA and 30.0 nA (2×) and 25.0 nA (2×)	0.0 nA (3×) and 5.0 nA (4×)	–
Cc1c[nH]c2ccccc12 [3-methylindole]	270.0 nA and 500.0 nA and 120.0 nA and 40.0 nA and 80.0 nA and 320.0 nA and 70.0 nA and 180.0 nA and 30.0 nA	160.0 nA and 85.0 nA and 170.0 nA and 235.0 nA and 120.0 nA and 225.0 nA and 245.0 nA	0.0 nA and 5.0 nA (5×) and 10.0 nA	Raw Data, concentration-response ([1]; 5e-7 M): 90.0 nA; Raw Data, concentration-response ([1]; 1e-5 M): 100.0 nA; EC50 ([1]; AaegOR10/Orco expressing oocytes, TEVC, concentration-response of normalized current): 0.16 µM; response of AaegOR55 to unitary compounds ([2]; AaegOR55/Orco expressing oocytes, TEVC, individual compounds): responded
COC(=O)c1c[nH]c2ccccc12 [methyl indole-3-carboxylate]	0.0 nA (6×) and 10.0 nA (2×) and 30.0 nA	–	0.0 nA and 20.0 nA and 15.0 nA (2×) and 10.0 nA (3×)	–
Cc1[nH]c2ccccc2c1C [2,3-dimethylindole]	70.0 nA and 20.0 nA and 0.0 nA (4×) and 10.0 nA (2×) and 30.0 nA	235.0 nA and 140.0 nA and 250.0 nA and 300.0 nA and 185.0 nA and 305.0 nA and 295.0 nA	0.0 nA (6×) and 5.0 nA	EC50 ([2]; AaegOR55/Orco expressing oocytes, TEVC, concentration-response of normalized current): 8.65 µM; Raw Data (Responses in nA), concentration-response ([2]; concentration 1e-7 M): 10.0 nA (6×) and 15.0 nA (2×) and 5.0 nA; Raw Data (Responses in nA), concentration-response ([2]; concentration 5e-7 M): 30.0 nA (4×) and 20.0 nA (2×) and 15.0 nA and 40.0 nA and 45.0 nA; Raw Data (Responses in nA), concentration-response ([2]; concentration 1e-6 M): 20.0 nA (2×) and 10.0 nA and 30.0 nA (2×) and 15.0 nA and 35.0 nA and 40.0 nA and 55.0 nA; Raw Data (Responses in nA), concentration-response ([2]; concentration 5e-6 M): 70.0 nA and 25.0 nA and 80.0 nA and 60.0 nA (2×) and 110.0 nA and 120.0 nA and 190.0 nA (2×); Raw Data (Responses in nA), concentration-response ([2]; concentration 1e-5 M): 90.0 nA (2×) and 25.0 nA and 120.0 nA and 80.0 nA and 140.0 nA and 170.0 nA and 260.0 nA (2×); Raw Data (Responses in nA), concentration-response ([2]; concentration 5e-5 M): 165.0 nA and 40.0 nA and 210.0 nA and 140.0 nA and 170.0 nA and 220.0 nA and 240.0 nA and 430.0 nA and 380.0 nA; Raw Data (Responses in nA), concentration-response ([2]; concentration 0.0001 M): 160.0 nA and 55.0 nA and 210.0 nA (3×) and 140.0 nA and 180.0 nA and 440.0 nA and 380.0 nA

Reference: publication PMC11073699, “Odorant receptors for floral- and plant-derived volatiles in the yellow fever mosquito, Aedes aegypti (Diptera: Culicidae)” (PLOS ONE, 2024)
